These results are taken from US5801180A, “Quinazoline derivatives” (priority 1991, dated 1998).

The target in this assay is T1, cGMP-PDE prepared from the swine aeorta (Sus scrofa, UniProt A0A287B475).
T1 construct: The swine aeorta was sliced; from tissue; host or cells: swine aorta, 100000×g supernatant, DEAE-Toyopearl 650S fraction
Nature of the assay: Enzyme inhibiting action with the use of cGMP-PDE prepared from the swine aorta. The note with it: CaM-independent cGMP-PDE, 1 mM EGTA, 1 μM cGMP substrate, DMSO 4% or below. It counts as biochemical. The protocol: Enzyme inhibiting action with the use of cGMP-PDE prepared from the swine aeorta
The enzymatic activity of the cGMP-PDE prepared from the swine aeorta was determined according to the method of Thompson et al. ^(1). The enzymatic activity thereof was determined in the presence of 1 mM EGTA by the use of 1 μM cGMP as a substrate. The compound of the present invention was dissolved in DMSO, added to the reaction liquid and examined for the inhibitory activity. The final concentration of DMSO in the reaction liquid was adjusted to 4% or below. (1) Thompson, W. J. and Strada, S. J., Cyclic Nucleotide Phosphodiesterase (PDE), in Methods of Enzymatic Analysis, vol 4, p.127-234, 1984.
The swine aeorta was sliced, followed by the addition of 10 times by volume as much Buffer A (20 mM Tris/HCl, 2 mM Mg acetate, 1 mM Dithiothreitol, 5 mM EDTA, 1400 TIU/liter aprotinin, 10 mg/liter leupeptin, 1 mM benzamidine, 0.2 mM PMSF, pH 7.5). The obtained mixture was homogenized and the homogenate was centrifuged at 100000×g for one hour. The obtained supernatant was supplied a DEAE-Toyopearl 650S (Tosoh, Tokyo, Japan) column. After the column was washed with Buffer B (50 mM Tris/HCl, 0.1 mM EGTA, 2 mM Mg acetate, 1 mM Dithiothreitol, 0.2 mM PMSF, pH 7.5), gradient elution with 0.05 to 0.4M NaCl was conducted. Thus, CaM-independent cGMP-PDE fractions were obtained.
The IC50 is the concentration that inhibits the measured activity by half. In the case of `CCOC(=O)c1nc(NCc2ccc3c(c2)OCO3)c2cc(Cl)ccc2n1` [Example 107, 2-Ethoxycarbonyl-4-(3,4-methylenedioxybenzyl)amino-6-chloroquinazoline], inhibition was half-maximal at 4 nM (IC50).

`CCOC(=O)/C(C)=C/c1nc(NCc2ccc3c(c2)OCO3)c2cc(Cl)ccc2n1` [Example 112, (E)-2-(2-Ethoxycarbonyl-1-propenyl)-4-(3,4-methylenedioxybenzyl)amino-6-chloroquinazoline] returned an IC50 of 2 nM.

Turning to `CCOC(=O)/C=C/c1nc(NCc2ccc3c(c2)OCO3)c2cc(Cl)ccc2n1` [Example 114, (E)-2-(2-Ethoxycarbonylvinyl)-4-(3,4-methylenedioxybenzyl)amino-6-chloroquinazoline], half-maximal inhibition (IC50) required 3 nM.

`CCOC(=O)/C=C/c1nc(NCc2ccc(OC)c(Cl)c2)c2cc(Cl)ccc2n1` [Example 115, (E)-2-(2-Ethoxycarbonylvinyl)-4-(3-chloro-4-methoxybenzyl)amino-6-chloroquinazoline] registered an IC50 of 2 nM.

With `C/C(=C\c1nc(NCc2ccc3c(c2)OCO3)c2cc(Cl)ccc2n1)C(=O)O` [Example 120, (E)-2-(2-Carboxy-1-propenyl)-4-(3,4-methylenedioxybenzyl)amino-6-chloroquinazoline], the IC50 was found to be 1 nM.

`O=C(O)c1nc(NCc2ccc3c(c2)OCO3)c2cc(Cl)ccc2n1` [Example 121, 2-Carboxy-4-(3,4-methylenedioxybenzyl)amino-6-chloroquinazoline] yielded an IC50 of 650 nM.

The compound `O=C(O)/C=C/c1nc(NCc2ccc3c(c2)OCO3)c2cc(Cl)ccc2n1` [Example 122, (E)-2-(2-Carboxyvinyl)-4-(3,4-methylenedioxybenzyl)amino-6-chloroquinazoline] had an IC50 of 5 nM.

Compound `C/C(=C/c1nc(NCc2ccc3c(c2)OCO3)c2cc(Cl)ccc2n1)C(=O)O` [Example 123, (Z)-2-(2-carboxy-1-propenyl)-4-(3,4-methylenedioxybenzyl)amino-6-chloroquinazoline] yielded an IC50 of 31 nM.

`COc1ccc(CNc2nc(/C=C/C(=O)O)nc3ccc(Cl)cc23)cc1Cl` [Example 124, (E)-2-(2-carboxyvinyl)-4-(3-chloro-4-methoxybenzyl)amino-6-chloroquinazoline] had an IC50 of 8 nM. Compared with the last compound, the IC50 is about 3.9-fold lower.

Consider `COc1ccc(CNc2nc(/C=C(\C)C(=O)O)nc3ccc(Cl)cc23)cc1Cl` [Example 125, (E)-2-(2-Carboxy-1-propenyl)-4-(3-chloro-4-methoxybenzyl)amino-6-chloroquinazoline], for which half-maximal inhibition (IC50) required 9 nM. The IC50 values of the last two compounds are within 1.5-fold of each other.

`COc1ccc(CNc2nc(/C=C(/C)C(=O)O)nc3ccc(Cl)cc23)cc1Cl` [Example 126, (Z)-2-(2-Carboxy-1-propenyl)-4-(3-chloro-4-methoxybenzyl)amino-6-chloroquinazoline] displayed an IC50 of 1 nM.

As to `COc1cc2c(NCc3ccc4c(c3)OCO4)nc(/C=C(\C)C(=O)O)nc2c(OC)c1OC` [Example 127, (E)-2-(2-Carboxy-1-propenyl)-4-(3,4-methylenedioxybenzyl)amino-6,7,8-trimethoxyquinazoline], the midpoint of inhibition, the IC50, lay at 110 nM.

For the compound `COc1cc2c(NCc3ccc4c(c3)OCO4)nc(/C=C(/C)C(=O)O)nc2c(OC)c1OC` [Example 128, (Z)-2-(2-Carboxy-1-propenyl)-4-(3,4-methylenedioxybenzyl)amino-6,7,8-trimethoxyquinazoline], the IC50 is 300 nM. Against the preceding compound, the IC50 is about 2.7-fold higher.

The compound `NC(=O)c1ccc2ncnc(NCc3ccc4c(c3)OCO4)c2c1` [Example 133, 4-(3,4-Methylenedioxybenzyl)amino-6-carbamoylquinazoline] had an IC50 of 770 nM. Against the preceding compound, the IC50 is about 2.6-fold higher.

`NC(=O)c1nc(NCc2ccc3c(c2)OCO3)c2cc(Cl)ccc2n1` [Example 134, 2-Carbamoyl-4-(3,4-methylenedioxybenzyl)amino-6-chloroquinazoline] came in with an IC50 of 5 nM.

`OCc1ccc2ncnc(NCc3ccc4c(c3)OCO4)c2c1` [Example 136] showed an IC50 of 930 nM.

For `CS(=O)(=O)c1ccc2ncnc(NCc3ccc4c(c3)OCO4)c2c1` [Example 138, 4-(3,4-Methylenedioxybenzyl)amino-6-methysulfonylquinazoline], the IC50 turned out to be 810 nM.
